system: native tau aggregates; assay: TAU radioligand in vitro displacement assay ([3H]T808, autoradiography on human AD brain sections); type: binding; conditions: compound 10 nM, radioligand [3H]T808 10 nM
Procedure, shortened: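 Displacement of 10 nM [3H]T808 from 10 μm human AD brain cryosections by test compounds at various concentrations, 30 min at room temperature in 50 mM Tris pH 7.4, then cold washes. Autoradiography after 5-day exposure; specific binding = ROI signal minus white-matter signal, expressed as % displacement.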

| SMILES | % displacement of [3H]T808 (10 nM) at 10 nM [%] |
| --- | --- |
| CNc1ccn2cc(-c3ccc(SC)cc3)nc2c1 [Example 71, Methyl-[2-(4-methylsulfanyl-phenyl)-imidazo[1,2-a]pyridin-7-yl]-amine] | 34 |
| CCc1ccc(-c2cn3ccc(NC)cc3n2)cc1 [Example 98, N-[2-(4-Ethyl-phenyl)-imidazo[1,2-a]pyridin-7-yl]-methyl-amine] | 38 |
| CNc1ccn2cc(-c3ccc(OC(F)F)cc3)nc2c1 [Example 113, N-[2-(4-Difluoromethoxy-phenyl)-imidazo[1,2-a]pyridin-7-yl]-methyl-amine] | 48 |
| COc1cc(-c2cn3ccc(NCCF)cc3n2)ccc1C [Example 135, N-(2-fluoroethyl)-2-(3-methoxy-4-methylphenyl)imidazo[1,2-a]pyridin-7-amine] | 14 |
| COc1ccc(-c2cn3ccc(NCCCF)cc3n2)cc1 [Example 132, N-(3-fluoropropyl)-2-(4-methoxyphenyl)imidazo[1,2-a]pyridin-7-amine] | 38 |
| COc1cccc(-c2cn3ccc(N4CCOCC4)cc3n2)c1 [Example 10, 2-(3-Methoxy-phenyl)-7-morpholin-4-yl-imidazo[1,2-a]pyridine] | 27 |
| Cc1ccc(-c2cn3ccc(N4CCC(CCF)CC4)cc3n2)cc1 [Example 87, 7-[4-(2-Fluoro-ethyl)-piperidin-1-yl]-2-p-tolyl-imidazo[1,2-a]pyridine] | 5 |
| FCCNc1ccn2cc(-c3ccco3)nc2c1 [Example 149, N-(2-Fluoroethyl)-2-(furan-2-yl)imidazo[1,2-a]pyridin-7-amine] | 23 |
| F[C@H]1CCN(c2ccn3cc(-c4ccccc4)nc3c2)C1 [Example 31, (S)-7-(3-Fluoropyrrolidin-1-yl)-2-phenyl-imidazo[1,2-a]pyridine] | 31 |
| CN(C)c1ccc(-c2cn3ccc(N(C)CCF)cc3n2)cc1 [Example 30, 2-(4-(Dimethylamino)phenyl)-N-(2-fluoroethyl)-N-methylimidazo[1,2-a]pyridin-7-amine] | 23 |
| COc1ccc(-c2cn3ccc(N4CCOCC4)cc3n2)cc1 [Example 13, 2-(4-Methoxy-phenyl)-7-morpholin-4-yl-imidazo[1,2-a]pyridine] | 40 |
| CNc1ccn2cc(-c3ccccc3O)nc2c1 [Example 120, 2-(7-Methylamino-imidazo[1,2-a]pyridin-2-yl)-phenol] | 20 |
| CNc1ccn2cc(-c3ccc(Br)cc3)nc2c1 [Example 114, N-[2-(4-Bromo-phenyl)-imidazo[1,2-a]pyridin-7-yl]-methyl-amine] | 33 |
| COc1cccc(-c2cn3ccc(N4CCC4)cc3n2)c1 [Example 91, 7-(azetidin-1-yl)-2-(3-methoxyphenyl)imidazo[1,2-a]pyridine] | 39 |
| CNc1ccn2cc(-c3cccc(OC)c3)nc2c1 [Example 44, [2-(3-Methoxy-phenyl)-imidazo[1,2-a]pyridin-7-yl]-methyl-amine] | 29 |
| FCOc1ccc(-c2cn3ccc(N4CCOCC4)cc3n2)cc1 [Example 49, 2-(4-Fluoromethoxy-phenyl)-7-morpholin-4-yl-imidazo[1,2-a]pyridine] | 10 |
| Br.CN(C)c1ccn2cc(-c3cccc(O)c3)nc2c1 [Example 82, 3-(7-Dimethylamino-imidazo[1,2-a]pyridin-2-yl)-phenol hydrobromide] | 49 |

| SMILES | % displacement of [3H]T808 (10 nM) at 10 nM [%] |
| --- | --- |
| Cc1ccc(-c2cn3ccc(N(C)C)cc3n2)cc1 [Example 27, N,N-Dimethyl-(2-p-tolyl-imidazo[1,2-a]pyridin-7-yl)-amine] | 52 |
| FCCNc1ccn2cc(-c3ccc(N4CCOCC4)cc3)nc2c1 [Example 147, N-(2-Fluoroethyl)-2-(4-morpholin-4-ylphenyl)imidazo[1,2-a]pyridin-7-amine] | 23 |
| COc1ccc(-c2cn3ccc(NCCF)cc3n2)cc1OC [Example 73, [2-(3,4-Dimethoxy-phenyl)-imidazo[1,2-a]pyridin-7-yl]-(2-fluoro-ethyl)-amine] | 21 |
| CNc1ccn2cc(-c3ccc(C)o3)nc2c1 [Example 115, Methyl-[2-(5-methyl-furan-2-yl)-imidazo[1,2-a]pyridin-7-yl]-amine] | 58 |
| COc1ccc(-c2cn3ccc(NC4CC4)cc3n2)cc1 [Example 67, Cyclopropyl-[2-(4-methoxy-phenyl)-imidazo[1,2-a]pyridin-7-yl]-amine] | 34 |
| COc1ccc(-c2cn3ccc(N4CC4C)cc3n2)cc1 (stereo not drawn) [Example 138, 2-(4-methoxyphenyl)-7-(2-methylaziridin-1-yl)imidazo[1,2-a]pyridine] | 44 |
| CNc1ccn2cc(-c3ccccc3)nc2c1 [Example 4, N-Methyl-2-phenylimidazo[1,2-a]pyridin-7-amine] | 61 |
| CNc1ccn2cc(-c3ccc(N4CCCCC4)cc3)nc2c1 [Example 118, Methyl-[2-(4-piperidin-1-yl-phenyl)-imidazo[1,2-a]pyridin-7-yl]-amine] | 20 |
| CN(C)c1ccn2cc(-c3cccc(OCF)c3)nc2c1 [Example 78, [2-(3-Fluoromethoxy-phenyl)-imidazo[1,2-a]pyridin-7-yl]-dimethyl-amine] | 53 |
| Cc1ccc(-c2cn3ccc(N(C)CCF)cc3n2)cc1 [Example 29, N-(2-Fluoroethyl)-N-methyl-(2-p-tolyl-imidazo[1,2-a]pyridin-7-yl)-amine] | 38 |
| CNc1ccn2cc(-c3cc(C)nn3C)nc2c1 [Example 117, N-[2-(2,5-Dimethyl-2H-pyrazol-3-yl)-imidazo[1,2-a]pyridin-7-yl]-methyl-amine] | 18 |
| COc1cccc(-c2cn3ccc(N4CCCCC4)cc3n2)c1 [Example 8, 2-(3-Methoxy-phenyl)-7-piperidin-1-yl-imidazo[1,2-a]pyridine] | 25 |
| FCCNc1ccn2cc(-c3ccc4c(c3)OCO4)nc2c1 [Example 51, (2-Benzo[1,3]dioxol-5-yl-imidazo[1,2-a]pyridin-7-yl)-(2-fluoro-ethyl)-amine] | 35 |
| CN(C)c1ccn2cc(-c3ccc(COCCF)cc3)nc2c1 [Example 105, 2-[4-(2-Fluoroethoxymethyl)phenyl]-N,N-dimethyl-imidazo[1,2-a]pyridin-7-amine] | 10 |
| CO[C@@H]1CCN(c2ccn3cc(-c4cccc(C)c4)nc3c2)C1 [Example 86, 7-((R)-3-Methoxy-pyrrolidin-1-yl)-2-m-tolyl-imidazo[1,2-a]pyridine] | 33 |
| Cc1ccc(-c2cn3ccc(N(C)C)cc3n2)cc1C [Example 52, [2-(3,4-Dimethyl-phenyl)-imidazo[1,2-a]pyridin-7-yl]-dimethyl-amine] | 27 |
| CC(=O)O.CNc1ccn2cc(-c3ccc(N4CCCC4)cc3)nc2c1 [Example 94, Methyl-[2-(4-pyrrolidin-1-yl-phenyl)-imidazo[1,2-a]pyridin-7-yl]-amine acetic acid adduct] | 18 |

same assay, conditions: compound 1 uM, radioligand [3H]T808 10 nM

| SMILES | % displacement of [3H]T808 (10 nM) at 1 uM [%] |
| --- | --- |
| CNc1ccn2cc(-c3ccccc3)nc2c1 [Example 4, N-Methyl-2-phenylimidazo[1,2-a]pyridin-7-amine] | 93 |

system: tau aggregates; assay: Autoradiography of tritiated radioligands on human cortical brain sections (Braak V AD patient); type: binding; conditions: radioligand 1.8 (ex. 62), 2.8 (ex. 64), 3.7 (ex. 61), 2.7 nM (ex. 63)
Protocol: The radioligand concentrations were 1.8, 2.8, 3.7 and 2.7 nM, respectively.

| SMILES | autoradiogram staining pattern |
| --- | --- |
| [3H]CNc1ccn2cc(-c3ccc(OCF)cc3)nc2c1 [Example 61, [^3H]-[2-(4-Fluoromethoxy-phenyl)-imidazo[1,2-a]pyridin-7-yl]-methyl-amine] | punctate staining of tau aggregates in a layered distribution pattern |

From US11358962B2, “2-hetaryl imidazol[1,2-a]pyridine derivatives” (Hoffmann-La Roche Inc., priority 2013, dated 2022)
